In patent EP4471048A1, “PEPTIDE INHIBITORS OF INTERLEUKIN-23 RECEPTOR” (Zealand Pharma A/S, priority 2023, dated 2024):
*1 amine or outer side, *2 acyl side, *3 side chain or, on linkers, in order; H or OH if unused. Where a SMILES comes first, the peptide text is derived from it. Bridges are numbered along the chain shown (N, C = ends). [ ]: non-standard residue; d: D form. X14 = O=C(CC[C@H](N[*:2])C(=O)[*:3])[*:1]; β3hW = N[C@H](CC(=O)O)Cc1c[nH]c2ccccc12; 2Nal = N[C@@H](Cc1ccc2ccccc2c1)C(=O)O; AEF = NCCOc1ccc(C[C@H](N)C(=O)O)cc1; 3Pal = N[C@@H](Cc1cccnc1)C(=O)O; αMeL = CC(C)C[C@](C)(N)C(=O)O; β3hK = NCCCC[C@H](N)CC(=O)O; Dab = NCC[C@H](N)C(=O)O

Molecular target: T1, human IL-23R (Homo sapiens, UniProt Q5VWK5)
T1 sequence (Q5VWK5 22-629): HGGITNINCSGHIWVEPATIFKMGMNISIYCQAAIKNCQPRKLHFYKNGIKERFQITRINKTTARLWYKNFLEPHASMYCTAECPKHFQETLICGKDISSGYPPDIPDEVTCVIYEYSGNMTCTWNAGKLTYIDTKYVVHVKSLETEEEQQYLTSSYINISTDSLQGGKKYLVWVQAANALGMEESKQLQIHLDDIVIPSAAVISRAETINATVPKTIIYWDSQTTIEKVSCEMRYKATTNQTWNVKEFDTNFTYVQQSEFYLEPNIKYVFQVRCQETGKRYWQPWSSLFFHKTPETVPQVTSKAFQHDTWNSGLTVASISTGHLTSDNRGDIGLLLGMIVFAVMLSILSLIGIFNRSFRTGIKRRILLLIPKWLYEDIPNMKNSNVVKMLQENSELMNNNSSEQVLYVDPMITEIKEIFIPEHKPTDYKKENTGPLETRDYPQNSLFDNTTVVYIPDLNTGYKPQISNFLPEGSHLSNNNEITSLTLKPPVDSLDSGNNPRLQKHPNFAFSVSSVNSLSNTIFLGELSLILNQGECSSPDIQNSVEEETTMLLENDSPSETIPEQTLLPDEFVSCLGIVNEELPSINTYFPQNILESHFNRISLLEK
Experiment: biochemical
Conditions: for Emax: read-out: % displacement (hIL-23R NIuc)
In short: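 BRET displacement of a TAMRA-labelled reference compound from N-terminal Nanoluc-IL-23R fusion protein in membranes from stably transfected HEK293 cells. Incubation 2 h at room temperature, then Nanoluc substrate was added and the TAMRA/Nanoluc ratio read. IC50 and maximal displacement came from 4-parameter logistic fits.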

CNC(=O)[C@H](Cc1cccnc1)NC(=O)[C@H](CCN)NC(=O)[C@@H]1CCC(=O)NCC[C@@H]2NC(=O)CC[C@H](NC(=O)[C@H](CCC(N)=O)NC(=O)[C@H](Cc3c[nH]c4ccccc34)NC(=O)CNC2=O)C(=O)N[C@@H](Cc2ccc(OCCN)cc2)C(=O)N[C@@H](Cc2ccc3ccccc3c2)C(=O)N[C@@](C)(CC(C)C)C(=O)N1 [Compound 92, [Dab](1c)(6c)^†GWQE(6c)[Y(2-aminoethoxy)][2-Nal][2-Me-Leu]E(1c)[Dab][3-(3-Pyridyl)-Ala]-[NHMe]]
IC50: 12 nM

CNC(=O)[C@H](Cc1cccnc1)NC(=O)[C@H](CCN)NC(=O)[C@@H]1CCC(=O)NCCCCC[C@@H]2NC(=O)CC[C@H](NC(=O)[C@H](CCC(N)=O)NC(=O)[C@H](Cc3c[nH]c4ccccc34)NC2=O)C(=O)N[C@@H](Cc2ccc(OCCN)cc2)C(=O)N[C@@H](Cc2ccc3ccccc3c2)C(=O)N[C@@](C)(CC(C)C)C(=O)N1 [Compound 93, [hLys](1c)(6c)^†WQE(6c)[Y(2-aminoethoxy)][2-Nal][2-Me-Leu]E(1c)[Dab][3-(3-Pyridyl)-Ala]-[NHMe]]
% displacement (hIL-23R NIuc): 99%
IC50: 3 nM

CNC(=O)[C@H](Cc1cccnc1)NC(=O)[C@H](CCN)NC(=O)[C@@H]1CCC(=O)NCC[C@@H]2NC(=O)CC[C@H](NC(=O)[C@H](CCC(N)=O)NC(=O)[C@H](Cc3c[nH]c4ccccc34)NC2=O)C(=O)N[C@@H](Cc2ccc(OCCN)cc2)C(=O)N[C@@H](Cc2ccc3ccccc3c2)C(=O)N[C@@](C)(CC(C)C)C(=O)N1 [Compound 94, [Dab](1c)(6c)^†WQE(6c)[Y(2-aminoethoxy)][2-Nal][2-Me-Leu]E(1c)[Dab][3-(3-Pyridyl)-Ala]-[NHMe]]
IC50: 3.7 nM
Emax: 99%

CNC(=O)[C@H](Cc1cccnc1)NC(=O)[C@H](CCN)NC(=O)[C@@H]1CCC(=O)NC[C@@H]2NC(=O)CC[C@H](NC(=O)[C@H](CCC(N)=O)NC(=O)[C@H](Cc3c[nH]c4ccccc34)NC2=O)C(=O)N[C@@H](Cc2ccc(OCCN)cc2)C(=O)N[C@@H](Cc2ccc3ccccc3c2)C(=O)N[C@@](C)(CC(C)C)C(=O)N1 [Compound 95, [Dpr](1c)(6c)^†WQE(6c)[Y(2-aminoethoxy)][2-Nal][2-Me-Leu]E(1c)[Dab][3-(3-Pyridyl)-Ala]-[NHMe]]
IC50: 17 nM
Emax: 98%

CNC(=O)[C@H](Cc1cccnc1)NC(=O)[C@H](CCN)NC(=O)[C@@H]1CCC(=O)NCCCC[C@@H]2NC(=O)CC[C@H](NC(=O)[C@H](CCC(N)=O)NC(=O)[C@H](Cc3c[nH]c4ccccc34)NC(=O)C[C@H]([C@@H](C)O)NC2=O)C(=O)N[C@@H](Cc2ccc(OCCN)cc2)C(=O)N[C@@H](Cc2ccc3ccccc3c2)C(=O)N[C@@](C)(CC(C)C)C(=O)N1 [Compound 97, K(1c)(6c)^†[beta-hThr]WQE(6c)[Y(2-aminoethoxy)][2-Nal][2-Me-Leu]E(1c)[Dab][3-(3-Pyridyl)-Ala]-[NHMe]]
% displacement (hIL-23R NIuc): 101%
IC50: 0.061 nM

CNC(=O)[C@H](Cc1cccnc1)NC(=O)[C@H](CCN)NC(=O)[C@@H]1CCC(=O)NCCCC[C@H]2CC(=O)N[C@@H](Cc3c[nH]c4ccccc34)CC(=O)N[C@@H](CCC(N)=O)C(=O)N[C@@H](CCC(=O)N2)C(=O)N[C@@H](Cc2ccc(OCCN)cc2)C(=O)N[C@@H](Cc2ccc3ccccc3c2)C(=O)N[C@@](C)(CC(C)C)C(=O)N1 [Compound 100, [beta-hLys](1c)(6c)^†[beta-hTrp]QE(6c)[Y(2-aminoethoxy)][2-Nal][2-Me-Leu]E(1c)[Dab][3-(3-Pyridyl)-Ala]-[NHMe]] ([β3hK][β3hW]QE[AEF][2Nal][αMeL]E[Dab][3Pal]-NHMe; lactam 1-8, N-4)
IC50: 150 nM
Emax: 97%

CNC(=O)[C@H](Cc1cccnc1)NC(=O)[C@H](CCN)NC(=O)[C@@H]1CCC(=O)NCCCC[C@H]2CC(=O)N[C@@H](Cc3c[nH]c4ccccc34)C(=O)N[C@@H](CCC(N)=O)C(=O)N[C@@H](CCC(=O)N2)C(=O)N[C@@H](Cc2ccc(OCCN)cc2)C(=O)N[C@@H](Cc2ccc3ccccc3c2)C(=O)N[C@@](C)(CC(C)C)C(=O)N1 [Compound 101, [beta-hLys](1c)(6c)^†WQE(6c)[Y(2-aminoethoxy)][2-Nal][2-Me-Leu]E(1c)[Dab][3-(3-Pyridyl)-Ala]-[NHMe]]
IC50: 30 nM
Emax: 103%

CNC(=O)[C@H](Cc1cccnc1)NC(=O)[C@H](CCN)NC(=O)[C@@H]1CCC(=O)N[C@H]2CCCCNC(=O)CC[C@H](NC(=O)[C@H](CCC(N)=O)NC(=O)[C@H](Cc3c[nH]c4ccccc34)NC2=O)C(=O)N[C@@H](Cc2ccc(OCCN)cc2)C(=O)N[C@@H](Cc2ccc3ccccc3c2)C(=O)N[C@@](C)(CC(C)C)C(=O)N1 [Compound 102, [iso-Lys](1c)^t(6c)WQE(6c)[Y(2-aminoethoxy)][2-Nal][2-Me-Leu]E(1c)[Dab][3-(3-Pyridyl)-Ala]-[NHMe]] (KWQE[AEF][2Nal][αMeL]E[Dab][3Pal]-NHMe; lactam 1-4, N-8)
IC50: 4.5 nM
Emax: 97%

CNC(=O)[C@H](Cc1cccnc1)NC(=O)[C@H](CCN)NC(=O)[C@@H]1CCC(=O)N[C@H]2CCNC(=O)CC[C@H](NC(=O)[C@H](CCC(N)=O)NC(=O)[C@H](Cc3c[nH]c4ccccc34)NC2=O)C(=O)N[C@@H](Cc2ccc(OCCN)cc2)C(=O)N[C@@H](Cc2ccc3ccccc3c2)C(=O)N[C@@](C)(CC(C)C)C(=O)N1 [Compound 103, [iso-Dab](1c)^†(6c)WQE(6c)[Y(2-aminoethoxy)][2-Nal][2-Me-Leu]E(1c)[Dab][3-(3-Pyridyl)-Ala]-[NHMe]]
IC50: 15 nM
Emax: 101%

CNC(=O)[C@H](Cc1cccnc1)NC(=O)[C@H](CCN)NC(=O)[C@@H]1CCC(=O)N[C@H]2CCNC(=O)CC[C@H](NC(=O)[C@H](CCC(N)=O)NC(=O)[C@H](Cc3c[nH]c4ccccc34)NC(=O)CNC2=O)C(=O)N[C@@H](Cc2ccc(OCCN)cc2)C(=O)N[C@@H](Cc2ccc3ccccc3c2)C(=O)N[C@@](C)(CC(C)C)C(=O)N1 [Compound 105, [iso-Dab](1c)^†(6c)GWQE(6c)[Y(2-aminoethoxy)][2-Nal][2-Me-Leu]E(1c)[Dab][3-(3-Pyridyl)-Ala]-[NHMe]]
IC50: 11 nM
Emax: 101%

CNC(=O)[C@H](Cc1cccnc1)NC(=O)[C@H](CCN)NC(=O)[C@@H]1CCCCNC(=O)[C@@H]2CCC(=O)N[C@@H](Cc3c[nH]c4ccccc34)C(=O)N[C@@H](CCC(N)=O)C(=O)N[C@@H](CCC(=O)N2)C(=O)N[C@@H](Cc2ccc(OCCN)cc2)C(=O)N[C@@H](Cc2ccc3ccccc3c2)C(=O)N[C@@](C)(CC(C)C)C(=O)N1 [Compound 106, [iso-Glu](1c)^‡(6c)^†WQE(6c)[Y(2-aminoethoxy)][2-Nal][2-Me-Leu]K(1c)[Dab][3-(3-Pyridyl)-Ala]-[NHMe]] (WQE[AEF][2Nal][αMeL]K[Dab][3Pal]-NHMe; linker N-3-7 via X14)
% displacement (hIL-23R NIuc): 99%
IC50: 2.5 nM

CNC(=O)[C@H](Cc1cccnc1)NC(=O)[C@H](CCN)NC(=O)[C@@H]1CCNC(=O)[C@@H]2CCC(=O)N[C@@H](Cc3c[nH]c4ccccc34)C(=O)N[C@@H](CCC(N)=O)C(=O)N[C@@H](CCC(=O)N2)C(=O)N[C@@H](Cc2ccc(OCCN)cc2)C(=O)N[C@@H](Cc2ccc3ccccc3c2)C(=O)N[C@@](C)(CC(C)C)C(=O)N1 [Compound 107, [iso-Glu](1c)^‡(6c)^†WQE(6c)[Y(2-aminoethoxy)][2-Nal][2-Me-Leu][Dab](1c)[Dab][3-(3-Pyridyl)-Ala]-[NHMe]] (WQE[AEF][2Nal][αMeL][Dab][Dab][3Pal]-NHMe; linker N-3-7 via X14)
Emax: 97%
